Measured values: article PMC10654507, “A cleavable chimeric peptide with targeting and killing domains enhances LPS neutralization and antibacterial properties against multi-drug resistant E. coli” (Communications Biology, 2023)
≈ marks a conversion by molar mass, not a printed value. Residues, ends and D or L forms follow the SMILES beside them.

Key:
MDR E. coli CVCC195 [1] = assay: Infiltrated inflammatory cells in lung sections, E. coli-challenged mice; format: in vivo, mouse; conditions: Fig. 6c source data, peptide + E. coli, mean
Method: Fig. 6 Effects of cleavable chimeric peptide R7 on lung injury in mice. […] Lung injury was analyzed histologically at 12 h or 24 h. a Histopathological images of lung sections after staining with hematoxylin and eosin (H&E). Images are presented at a magnification of 100×. b Pathological analysis of lung. Lung injury involves in inflammation (such as peribronchial, perivascular, intrabronchial, and pulmonary interstitial one), bronchial exudate, and alveolar septal thickening, respectively. The specific degree of lung injury of each mouse is assessed by Score 0 (asymptomatic), Score 1 (mild), Score 2 (moderate), and Score 3 (severe), respectively. c The number of counted infiltrated inflammatory cells within processed lung sections from a. Data represent the mean ± SD of three independent experiments. Different lower-case letters indicate a significant difference between the two groups (p < 0.05).
Lung tissues were taken at 12 h and 24 h, respectively, washed with PBS, and fixed in 4% paraformaldehyde overnight. After dehydration in different concentrations of ethanol (including 75%, 85%, 90%, and 95%, respectively), the tissues were embedded in paraffin, sliced, and stained with hematoxylin. Observation was performed under a light microscope. The mice only injected with E. coli, LPS or PBS was regard as the negative or blank control.

LPS [2] = assay: Serum cytokines (TNF-α, IL-6, IL-1β, IL-10; ELISA) in LPS-challenged mice; format: in vivo, mouse; conditions: LPS-challenged mice pre-treated with 7 μmol/kg, range over sampling times (12 h, 24 h)
Method: (§1) After E. coli or LPS challenge, the mice were sacrificed at 12 h and 24 h, respectively, and the sera were collected to detect inflammatory cytokines (such as tumor necrosis factor-α (TNF-α), interleukin-6 (IL-6), interleukin-1β (IL-1β), and interleukin-10 (IL-10)) using the enzyme linked immunosorbent assay (ELISA) kits. To evaluate the specific activity of intestinal alkaline phosphatase (IAP), a 2 cm segment of duodenum was rapidly intercepted from the mice and homogenized; the IAP levels in the supernatant were detected by ELISA. In addition, the lungs were collected from the mice infected by E. coli after 12 and 24 h, respectively and were homogenized in sterile PBS for the bacterial counts assay.

LPS [3] = assay: Intestinal alkaline phosphatase (IAP) activity in duodenum, LPS-challenged mice; format: in vivo, mouse; design: IAP levels in mice: unit not given beside the values; conditions: for IAP levels in mice: Fig. 7f source data, peptide + LPS, mean
Method: as §1

Escherichia coli CVCC195 = format: cell-based; conditions: repeated three times; for MBC: lowest concentration giving 99.9% reduction of the inoculum; for MIC: microtiter broth dilution, 10^5 CFU/mL, 37 °C, 16 ~ 18 h
Method: (§2) The minimum inhibitory concentration (MIC) and minimum bactericidal concentration (MBC) of peptides were determined by the microtiter broth dilution method according to Clinical and Laboratory Standards Institute (CLSI) guidelines. […] PBS was used as the negative control. […] The MBC value was calculated as the lowest concentration of peptides resulting in a 99.9% reduction of the original inoculum. All experiments were repeated three times.

[4] = system: Staphylococcus aureus ATCC43300; format: cell-based; conditions: repeated three times; for MBC: lowest concentration giving 99.9% reduction of the inoculum; for MIC: microtiter broth dilution, 10^5 CFU/mL, 37 °C, 16 ~ 18 h
Method: as §2

LPS [5] = assay: Mouse survival, preventive treatment before lethal LPS challenge; format: in vivo; design: key to survival of mice, single-animal event: 1 represents a mouse death; 0 represents no death; conditions: for mouse survival at 7 days: 7 μmol/kg i.p. at 0 h, LPS 13.5 mg/kg i.p. at 6 h, five mice/group; for survival of mice, single-animal event: Fig. 7a source data, LPS challenge
Method: A sepsis mouse model established in our laboratory was used to evaluate the prevention effect of peptides. […] The survival rate of mice was recorded for 7 days. The mice injected with saline were used as negative control.

in vitro = in vitro ADME; conditions: for degradation in human serum: RP-HPLC (Supplementary Fig. 2)
RAW264.7 cells = assay: Cytotoxicity, MTT method; format: cell-based; conditions: for RAW 264.7 cell survival: 128 μM; for cytotoxicity: low concentration (0 ~ 32 μM)
Method: RAW264.7 cells (2.5 × 10^4 cells/mL, 100 μL) were added into the 96-well plate and cultured at 37 °C in 5% CO2 for 24 h. After removing the medium and washing twice with PBS, 100 μL peptides (1, 2, 4, 8, 16, 32, 64 and 128 μM) were added to each well. PBS was served as the negative control. After incubation for 24 h, 20 μL MTT (5 mg/mL) was added into each well and incubated for another 4 h. Then, the supernatant was removed and 150 μL dimethylsulfoxide (DMSO) was added into the plate and shaken for 10 min. The absorbance of each well was measured at 570 nm and the survival rate of cells was calculated as follows: Survival (%) = [(Abspeptide/ Abscontrol)] × 100, where Abspeptide and Abscontrol present the absorbance of peptide and PBS control, respectively.

MDR E. coli CVCC195 [6] = assay: Intestinal alkaline phosphatase (IAP) activity in duodenum, E. coli-challenged mice; format: in vivo, mouse; conditions: for IAP levels in mice: Fig. 5g source data, peptide + E. coli, mean; for IAP activity: duodenum, 12 h after E. coli infection, mice pre-treated with 7 μmol/kg peptide, ELISA
Method: as §1

MDR E. coli CVCC195 [7] = assay: Antibacterial activity after incubation in mouse serum (inhibition zone); format: cell-based, Escherichia coli; conditions: until 8 h of incubation
Method: Serum stability of R7 and its parent-L7 was tested as previously described with minor modifications[46],[53]. Briefly, each peptide was added to the 25% mouse serum to a final concentration of 0.5 mM; 250 µL aliquots of samples were taken at 0, 0.5, 1, 2, 4 and 8 h, and mixed with 20 µL 15% trichloroacetic acid (TCA). The samples were incubated at 4 °C for 15 min and centrifuged for 10 min at 12,000 rpm. The supernatants were analyzed by RP-HPLC or inhibition zone method. Moreover, after incubation in serum for 2 h, R7 was analyzed by matrix assisted laser desorption/ionization-time of flight mass spectrometry (MALDI-TOF MS) and high-performance liquid chromatography-mass spectrometry (HPLC-MS), respectively.

[8] = event at day 2, one cell per mouse
[9] = event at day 7, one cell per entry
[10] = Supplementary Fig. 2b source data, human serum, RP-HPLC, mean, read-out: remaining rate in human serum

| Compound | number of counted infiltrated inflammatory cells (MDR E. coli CVCC195 [1]; 12 h) | number of counted infiltrated inflammatory cells (MDR E. coli CVCC195 [1]; 24 h) | serum IL-1β concentration (LPS [2]) | serum IL-6 concentration (LPS [2]) | serum IL-10 concentration (LPS [2]) | serum TNF-α concentration (LPS [2]) | IAP levels in mice (LPS [3]; 12 h) | IAP levels in mice (LPS [3]; 24 h) | MBC (Escherichia coli CVCC195) [µM] | MIC (Escherichia coli CVCC195) [µM] | MBC [4] [µM] | MIC [4] [µM] | mouse survival at 7 days (LPS [5]) [%] | survival of mice, single-animal event (LPS [5]; [8]) | survival of mice, single-animal event (LPS [5]; [9]) | degradation in human serum (in vitro) | remaining at 0.5 h, 0.5 mM (in vitro; [10]) [%] | remaining at 1 h, 0.5 mM (in vitro; [10]) [%] | remaining at 2 h, 0.5 mM (in vitro; [10]) [%] | remaining at 4 h, 0.5 mM (in vitro; [10]) [%] | other results |
| --- | --- | --- | --- | --- | --- | --- | --- | --- | --- | --- | --- | --- | --- | --- | --- | --- | --- | --- | --- | --- | --- |
| CSCC[C@H](NC(=O)[C@H](CCCNC(=N)N)NC(=O)[C@H](Cc1c[nH]c2ccccc12)NC(=O)[C@H](C)NC(=O)[C@H](Cc1c[nH]c2ccccc12)NC(=O)[C@H](CCCNC(=N)N)NC(=O)[C@H](Cc1c[nH]c2ccccc12)NC(=O)[C@H](C)NC(=O)[C@H](CCCCN)NC(=O)[C@@H](N)Cc1ccccc1)C(=O)N[C@@H](CCCCN)C(=O)N[C@@H](CCCCN)C(=O)N[C@@H](CC(C)C)C(=O)N[C@@H](C)C(=O)N[C@@H](C)C(=O)N1CCC[C@H]1C(=O)N[C@@H](CO)C(=O)O [L7] (H-FKAWRWAWRMKKLAAPS-OH) | 32.847 | 26.4133 | 24.6 ~ 26.1 pg/mL | 113.2 ~ 120.2 pg/mL | 11.5 ~ 12.0 pg/mL | 56.4 ~ 68.0 pg/mL | 684.97 | 544.938 | 4.53 (≈ 9.67 µg/mL) | 2.26 (≈ 4.82 µg/mL) | 18.1 (≈ 38.6 µg/mL) | 18.1 (≈ 38.6 µg/mL) | 40 | 1 | 0 | almost identical to those in mouse serum | 86.9 | 51.4 | 32 | 4.71 | remaining at 8 h, 0.5 mM (in vitro; Supplementary Fig. 2b source data, human serum, 8 h, RP-HPLC, mean, read-out: remaining rate in human serum): 0.839%; RAW 264.7 cell survival (RAW264.7 cells): 87.7%; cytotoxicity (RAW264.7 cells): no hemolysis and cytotoxicity; IAP levels in mice (MDR E. coli CVCC195 [6]; 12 h): 646.785; IAP levels in mice (MDR E. coli CVCC195 [6]; 24 h): 420.095; IAP activity (MDR E. coli CVCC195 [6]): 646.8 U/g |
| CSCC[C@H](NC(=O)[C@H](CCCNC(=N)N)NC(=O)[C@H](Cc1c[nH]c2ccccc12)NC(=O)[C@H](C)NC(=O)[C@H](Cc1c[nH]c2ccccc12)NC(=O)[C@H](CCCNC(=N)N)NC(=O)[C@H](Cc1c[nH]c2ccccc12)NC(=O)[C@H](C)NC(=O)[C@H](CCCCN)NC(=O)[C@H](Cc1ccccc1)NC(=O)[C@H](CCCNC(=N)N)NC(=O)[C@H](CCCNC(=N)N)NC(=O)[C@H](CCCCN)NC(=O)[C@H](CCCNC(=N)N)NC(=O)[C@H](CCCCN)NC(=O)[C@H](Cc1ccccc1)NC(=O)[C@H](Cc1ccccc1)NC(=O)[C@H](CO)NC(=O)[C@H](C)NC(=O)[C@H](CCCNC(=N)N)NC(=O)[C@@H](NC(=O)[C@H](CCCCN)NC(=O)[C@H](Cc1c[nH]c2ccccc12)NC(=O)[C@H](CCCNC(=N)N)NC(=O)CNC(=O)[C@H](CCC(N)=O)NC(=O)[C@@H](NC(=O)[C@@H](N)CCCNC(=N)N)C(C)C)C(C)C)C(=O)N[C@@H](CCCCN)C(=O)N[C@@H](CCCCN)C(=O)N[C@@H](CC(C)C)C(=O)N[C@@H](C)C(=O)N[C@@H](C)C(=O)N1CCC[C@H]1C(=O)N[C@@H](CO)C(=O)O [R7] (H-RVQGRWKVRASFFKRKRRFKAWRWAWRMKKLAAPS-OH) | 14.3787 | 11.7743 | 16.9 ~ 17.5 pg/mL | 92.5 ~ 99.3 pg/mL | 13.9 ~ 14.5 pg/mL | 43.1 ~ 46.1 pg/mL | 1301.32 | 927.606 | 1.13 (≈ 5.06 µg/mL) | 1.13 (≈ 5.06 µg/mL) | 2.26 (≈ 10.1 µg/mL) | 2.26 (≈ 10.1 µg/mL) | 100 | 0 | 0 | almost identical to those in mouse serum | 58.6 | 51.9 | 45.6 | 23 | change of antibacterial activity in mouse serum (MDR E. coli CVCC195 [7]): did not changed; effect on IAP activity compared to the LPS group (LPS [3]; 12 h after LPS challenge): significantly up-regulated; effect on IAP activity compared to the LPS group (LPS [3]; 24 h after LPS challenge): no significant changes; RAW 264.7 cell survival (RAW264.7 cells): 58.2%; cytotoxicity (RAW264.7 cells): no hemolysis and cytotoxicity; IAP levels in mice (MDR E. coli CVCC195 [6]; 12 h): 514.632; IAP levels in mice (MDR E. coli CVCC195 [6]; 24 h): 541.948; IAP activity (MDR E. coli CVCC195 [6]): 514.6 U/g |
